Measured values: paper PMC8844856, “Structural basis of cyclic oligoadenylate binding to the transcription factor Csa3 outlines cross talk between type III and type I CRISPR systems” (The Journal of Biological Chemistry, 2022)
“Also recorded” adds a separate entry of the source.

Assays:
His6-Csa3Sso (WT) [1] = molecular target: T1, His6-Csa3Sso (WT) (Saccharolobus solfataricus, UniProt Q97Y88); experiment: Microscale thermophoresis (MST) binding of cOA ligands to wildtype Csa3Sso; details: for specific binding to His6-Csa3Sso: MST
T1 construct: made in house; host or cells: E. coli BL21(DE3)-pLysS
T1 sequence (Q97Y88 1-237): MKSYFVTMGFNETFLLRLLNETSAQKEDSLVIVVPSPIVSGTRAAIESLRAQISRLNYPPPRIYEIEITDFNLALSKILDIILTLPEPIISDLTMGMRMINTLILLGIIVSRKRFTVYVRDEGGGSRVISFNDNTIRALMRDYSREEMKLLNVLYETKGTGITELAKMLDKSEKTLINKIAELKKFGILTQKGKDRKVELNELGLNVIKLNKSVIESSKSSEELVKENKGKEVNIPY
Description: (§1) The ligand-binding specificity of Csa3Sso (WT) and the role of Csa3Sso residues in ligand binding were determined by microscale Thermophoresis (MST). Wildtype or mutant His6-Csa3Sso (200 nM) was fluorescently labeled in 2× binding buffer (10 mM Na/K phosphate, pH 5.8, 10 mM MgCl2, 25 mM NaCl, and 0.05% Tween 20) using 100 nM RED-Tris NTA His-Tag labeling dye (Nanotemper Technologies, Inc) and incubated in the dark at room temperature for 30 min. Two millimolar stocks of synthetic ligands including cA3, cA4, and cA6 (Biolog Life Science Institute) or linear ribonucleotide 5′-rCrArArArA-3′ (Bio-Synthesis Inc) were serially diluted in a 1:1 ratio with nuclease-free water. The labeled proteins were then mixed with ligands in a 1:1 ratio. Only cA4 was used in the MST experiments with the Csa3Sso mutants (2 mM stocks of cA4 were used for F10A, F14A, G96A, and R98A mutants, and 20 μM stocks were used for E122A and E122Q mutants). The mixtures of proteins and ligands were incubated in the dark at room temperature for 30 min. The precipitated material was removed by centrifugation at 6000 rpm for 5 min. The supernatants were then loaded into Monolith NT.115 Series Premium capillaries in triplicate, and the thermophoresis was detected with 40% excitation power and 40% IR-laser power for an on-time of 20 s at 25 °C.
(§2) The binding affinities of oligonucleotides and PCas4a to Csa3Sso (WT and mutants) were analyzed according to the law of mass action in a standard fitting mode of MO.Affinity analysis software (version 2.3).

His6-Csa3Sso (WT) [2] = molecular target: T1, His6-Csa3Sso (WT); experiment: MST binding of PCas4a promoter DNA to Csa3Sso with or without cOAs; details: 50-fold excess of cOA (25 μM)
Description: The MST experiment and data analysis for ligand-induced changes in Csa3Sso binding affinity with PCas4a was performed as mentioned above except for the following: 1 μM of His6-Csa3Sso (WT) was fluorescently labeled in 2× binding buffer with 40 nM RED-Tris NTA His-Tag labeling dye in the absence or presence of cA4 or cA6. The labeling mixtures were incubated in the dark at room temperature for 30 min. A 50 μM stock of PCas4a was serially diluted in 1:1 ratios with nuclease-free water. The labeled proteins ± ligands were then mixed with diluted PCas4a in a 1:1 ratio and incubated in the dark at room temperature for 30 min. The supernatants obtained after removal of precipitated material were then loaded into Monolith NT.115 Series Premium capillaries in triplicate, and the thermophoresis was detected with 100% excitation power and 60% IR-laser power for an on-time of 20 s at 25 °C.
as §2

Csa3Sso F10A mutant = molecular target: T2, Csa3Sso F10A mutant (Saccharolobus solfataricus, UniProt Q97Y88, F10A); experiment: MST binding of cA4 to Csa3Sso F10A mutant; details: Fig. 4E
T2 construct: made in house; host or cells: E. coli BL21(DE3)-pLysS (pET21b)
Description: as §1, with “The mixtures of proteins and ligands were incubated in the dark at room temperature for 30 min. The precipitated material was removed by centrifugation at 6000 rpm for 5 min.” left out
as §2

Csa3Sso F14A mutant = molecular target: T3, Csa3Sso F14A mutant (Saccharolobus solfataricus, UniProt Q97Y88, F14A); experiment: MST binding of cA4 to Csa3Sso F14A mutant; details: Fig. 4E
T3 construct: made in house; host or cells: E. coli BL21(DE3)-pLysS (pET21b)
Description: as §1, with “The mixtures of proteins and ligands were incubated in the dark at room temperature for 30 min. The precipitated material was removed by centrifugation at 6000 rpm for 5 min.” left out
as §2

Csa3Sso G96A mutant = molecular target: T4, Csa3Sso G96A mutant (Saccharolobus solfataricus, UniProt Q97Y88, G96A); experiment: MST binding of cA4 to Csa3Sso G96A mutant; details: Fig. 4E
T4 construct: made in house; host or cells: E. coli BL21(DE3)-pLysS (pET21b)
Description: as §1, with “The mixtures of proteins and ligands were incubated in the dark at room temperature for 30 min. The precipitated material was removed by centrifugation at 6000 rpm for 5 min.” left out
as §2

Csa3Sso R98A mutant = molecular target: T5, Csa3Sso R98A mutant (Saccharolobus solfataricus, UniProt Q97Y88, R98A); experiment: MST binding of cA4 to Csa3Sso R98A mutant; details: Fig. 4E
T5 construct: made in house; host or cells: E. coli BL21(DE3)-pLysS (pBB75)
Description: as §1, with “The mixtures of proteins and ligands were incubated in the dark at room temperature for 30 min. The precipitated material was removed by centrifugation at 6000 rpm for 5 min.” left out
as §2

Csa3Sso = molecular target: T6, Csa3Sso (Saccharolobus solfataricus, UniProt Q97Y88); experiment: Ring nuclease activity assay (C18 HPLC), wildtype Csa3Sso; type: biochemical; details: 3 h
T6 construct: made in house; host or cells: E. coli BL21(DE3)-pLysS
T6 sequence (Q97Y88 1-237): T1 sequence (Q97Y88 1-237)
Description: (§3) […]. The reaction mixtures were deproteinized by ultrafiltration with an Amicon Ultra 3 kDa cutoff centrifugal filter (Millipore). […]. For both conditions, the products and controls were collected and analyzed with High Performance Liquid Chromatography system (UltiMate 3000, Thermo Scientific) equipped with the C18 column (4.6 × 100 mm, […], Thermo Scientific) and C18 column, (15 cm × 4.6 mm, […], Supelco), for the first and second conditions, respectively.

Csa3Sso-E122A = molecular target: T7, Csa3Sso-E122A (Saccharolobus solfataricus, UniProt Q97Y88, E122A); experiment: Ring nuclease activity assay (C18 HPLC), Csa3Sso-E122A; type: biochemical; details: 5 μM E122A mutant, 500 μM cA4, 60 °C, 3 h, Fig. S5C
T7 construct: made in house; host or cells: E. coli BL21(DE3)-pLysS (pET21b)
Description: as §3

Csa3Sso-E122Q = molecular target: T8, Csa3Sso-E122Q (Saccharolobus solfataricus, UniProt Q97Y88, E122Q); experiment: Ring nuclease activity assay (C18 HPLC), Csa3Sso-E122Q; type: biochemical; details: 5 μM E122Q mutant, 500 μM cA4, 60 °C, 3 h, Fig. S5C
T8 construct: made in house; host or cells: E. coli BL21(DE3)-pLysS (pET21b)
Description: as §3

[3] = molecular target: T9, Csa3Sso–PCas4a complex precipitates (Saccharolobus solfataricus, UniProt Q97Y88); experiment: Visual precipitation of Csa3Sso–PCas4a complexes in tubes, wildtype; details: 50 μM Csa3Sso WT, 10 μM PCas4a, 500 μM cA4, 30 min, 20 °C
T9 construct: made in house; host or cells: E. coli BL21(DE3)-pLysS
T9 sequence (Q97Y88 1-237): T1 sequence (Q97Y88 1-237)
From the text: (§4) […]. The DNA fragment docked onto protomer A in the cA4-bound Csa3Sso dimer sterically clashed with a region in the CARF domain from protomer B in this dimer (encircled by a red dotted circle). […] To obtain these models, wHTH domains of B. subtilis OhrR (PDB code: 1Z9C ([71]), RMSD: 1.7 Å) were individually superimposed onto wHTH domains of the Csa3Sso dimer and OhrR was omitted from the view for clarity. A single and straight model of B-form DNA with two copies of the palindromes could not be modeled with the apo Csa3Sso dimer owing to a slight misorientation (not shown) between Csa3Sso wHTH domains (possibly requiring a bend in the DNA). B, precipitation of Csa3Sso in the presence of PCas4a DNA and its solubilization by cA4 binding to the Csa3Sso CARF domain. […]. Cy5-labeled PCas4a, 50 nM, was added to different Csa3Sso concentrations ranging from 500 nM to 25 μM in the presence or absence of cA4 added in a 50:1 ratio of cA4:Csa3Sso. […].

[4] = molecular target: T10, Csa3Sso-R98A mutant with PCas4a DNA (Saccharolobus solfataricus, UniProt Q97Y88, R98A); experiment: Visual precipitation of Csa3Sso-R98A with PCas4a DNA in tubes; details: 50 μM Csa3Sso R98A, 10 μM PCas4a, 500 μM cA4, 30 min, 20 °C
T10 construct: made in house; host or cells: E. coli BL21(DE3)-pLysS (pBB75)
From the text: as §4

Csa3Sso–PCas4a complex = Csa3Sso–PCas4a complex (Saccharolobus solfataricus, UniProt Q97Y88)
Description: Top and bottom DNA oligonucleotide strands used for EMSA were purchased from Sigma-Aldrich (Table S2). The oligonucleotide strands were annealed by mixing them in 1:1 molar ratio followed by heating at 98 °C for the unlabeled, or 70 °C for the Cy5-labeled, DNA fragments for 15 min. Slow cooling to room temperature was used to anneal the fragments. Unlabeled probe-containing samples used for Fig. S8C were electrophoresed using a 2% (w/v) agarose Tris-Borate-EDTA (TBE) gel at 100 V for 30 min at room temperature. Probes were stained with ethidium bromide and visualized using Gel Doc XR+ Molecular Imager (Bio-Rad). […] The Cy5-labeled probes were electrophoresed in a 5% acrylamide TBE gel at 100 V for 1 h at 4 °C. DNA bands were visualized using FluorChem R gel imager (Protein Simple, Inc).

[5] = molecular target: Treponema succinifaciens Card1; parameters: method as in PMID 33461211; details: cited from earlier work
Csa3Sso WT = molecular target: T11, Csa3Sso WT (Saccharolobus solfataricus P2, UniProt Q97Y88 1-237); experiment: MST; apparent Kd; MST buffer not given in the material; Cy5 EMSA: 50 nM probe, 0.5-25 uM protein, 5% acrylamide TBE, 4 C; agarose EMSA: 2% TBE, room temperature; crystals: 20 mM; details: protein: recombinant; tags: N-terminal His6; chain copies: 2; cyclic; no ends
T11 sequence: T1 sequence (Q97Y88 1-237)

T8 sequence (Q97Y88 whole entry E122Q): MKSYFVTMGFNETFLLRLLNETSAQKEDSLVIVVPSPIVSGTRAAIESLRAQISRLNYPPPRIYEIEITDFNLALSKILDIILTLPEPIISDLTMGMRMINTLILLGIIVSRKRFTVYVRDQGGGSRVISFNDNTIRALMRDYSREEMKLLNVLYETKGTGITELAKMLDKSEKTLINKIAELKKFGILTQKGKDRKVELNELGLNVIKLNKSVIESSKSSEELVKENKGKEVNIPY
T7 sequence (Q97Y88 whole entry E122A): as the sequence (Q97Y88 whole entry E122Q) above, with Q122A counted along it
T4 sequence (Q97Y88 whole entry G96A): as the sequence (Q97Y88 whole entry E122Q) above, with G96A, Q122E counted along it
T3 sequence (Q97Y88 whole entry F14A): as the sequence (Q97Y88 whole entry E122Q) above, with F14A, Q122E counted along it
T2 sequence (Q97Y88 whole entry F10A): as the sequence (Q97Y88 whole entry E122Q) above, with F10A, Q122E counted along it
T5 sequence (Q97Y88 whole entry R98A): as the sequence (Q97Y88 whole entry E122Q) above, with R98A, Q122E counted along it
T10 sequence (Q97Y88 whole entry R98A): as the sequence (Q97Y88 whole entry E122Q) above, with R98A, Q122E counted along it

## Nc1ncnc2c1ncn2[C@@H]1O[C@@H]2COP(=O)(O)O[C@H]3[C@@H](O)[C@H](n4cnc5c(N)ncnc54)O[C@@H]3COP(=O)(O)O[C@H]3[C@@H](O)[C@H](n4cnc5c(N)ncnc54)O[C@@H]3COP(=O)(O)O[C@H]3[C@@H](O)[C@H](n4cnc5c(N)ncnc54)O[C@@H]3COP(=O)(O)O[C@H]3[C@@H](O)[C@H](n4cnc5c(N)ncnc54)O[C@@H]3COP(=O)(O)O[C@H]3[C@@H](O)[C@H](n4cnc5c(N)ncnc54)O[C@@H]3COP(=O)(O)O[C@H]2[C@H]1O [cA6]
His6-Csa3Sso (WT) [1]
  specific binding to His6-Csa3Sso: only cA4 exhibited a specific low micromolar binding
His6-Csa3Sso (WT) [2]
  effect of excess cOA on PCas4a binding affinity of Csa3Sso: no significant effect; also recorded: did not significantly change

## Nc1ncnc2c1ncn2[C@@H]1O[C@@H]2COP(=O)(O)O[C@H]3[C@@H](O)[C@H](n4cnc5c(N)ncnc54)O[C@@H]3COP(=O)(O)O[C@H]3[C@@H](O)[C@H](n4cnc5c(N)ncnc54)O[C@@H]3COP(=O)(O)O[C@H]2[C@H]1O [cA3]
His6-Csa3Sso (WT) [1]
  specific binding to His6-Csa3Sso: lack of Csa3Sso binding

## Nc1ncnc2c1ncn2[C@@H]1O[C@@H]2COP(=O)(O)O[C@H]3[C@@H](O)[C@H](n4cnc5c(N)ncnc54)O[C@@H]3COP(=O)(O)O[C@H]3[C@@H](O)[C@H](n4cnc5c(N)ncnc54)O[C@@H]3COP(=O)(O)O[C@H]3[C@@H](O)[C@H](n4cnc5c(N)ncnc54)O[C@@H]3COP(=O)(O)O[C@H]2[C@H]1O [cA4, cyclic tetra-adenylate]
His6-Csa3Sso (WT) [1]; MST KD vs SPR KD of ref 57
  fold stronger binding of His6-Csa3Sso to cA4 than Csa3bSis to the linear cA4 analog: 8 fold
Csa3Sso F10A mutant
  cA4 binding: complete loss of cA4 binding
Csa3Sso F14A mutant
  cA4 binding: complete loss of cA4 binding
Csa3Sso G96A mutant
  cA4 binding: completely lost the ability to bind cA4
Csa3Sso R98A mutant
  cA4 binding: completely lost cA4 binding
Csa3Sso; 5 μM Csa3Sso, 500 μM cA4, buffer G, 60 °C, Fig. 6
  cA4 hydrolysis (ring nuclease activity): no sign of cA4 hydrolysis products; also recorded: No changes in the time-dependent stability of cA4
Csa3Sso; 50 µM Csa3Sso, 250 µM cA4, buffer G or binding buffer, 55 °C, Fig. S5 A, B
  cA4 hydrolysis (ring nuclease activity): No changes
Csa3Sso-E122A
  cA4 hydrolysis (ring nuclease activity): did not exhibit any gain of ring nuclease activity; also recorded: no ring nuclease activity was observed
Csa3Sso-E122Q
  cA4 hydrolysis (ring nuclease activity): did not exhibit any gain of ring nuclease activity; also recorded: no ring nuclease activity was observed
His6-Csa3Sso (WT) [2]
  effect of excess cOA on PCas4a binding affinity of Csa3Sso: no significant effect; also recorded: did not significantly change
[3]
  effect on formation of Csa3Sso–PCas4a complex precipitates: prevented their formation
[4]
  rescue of Csa3Sso-R98A from precipitating with DNA: could not rescue
Csa3Sso–PCas4a complex
  effect on levels of soluble Csa3Sso–DNA complex (shifted band): no effect
[5]
  Kd: 0.015 µM

## AAAA (ssRNA, cyclic, 3'-5' linked tetra-adenylate (CHEBI:142457)) [cA4]
Csa3Sso WT
  Kd: 5.8 ± 0.03 µM
